Experimental data from publication PMC7651859, “Identification of 6-amino-1H-pyrazolo[3,4-d]pyrimidines with in vivo efficacy against visceral leishmaniasis” (RSC Medicinal Chemistry, 2020).
Values after ≈ are worked out from the molar mass of the structure shown. Like-named read-outs stand apart in the source and are kept apart here.

Assays:
[1] = CAD kinetic aqueous solubility; type: physicochemical; details: pH 7.4, pH7.4 phosphate buffered saline
Experimental: CAD Aqueous Solubility 11
5µl of 10mM DMSO stock solution is diluted to 100 µ l with pH7.4 phosphate buffered saline,
equilibrated for 1 hour at room temperature and filtered through Millipore MultiscreenHTS-PCF

THP-1 cells = experiment: THP-1 host cell toxicity readout of the Ld InMac assay; type: cell-based; details: Homo sapiens; host THP-1 cells; mean of n ≥ 3; read-out: THP-1 pEC50 (converted)
Source text: (§1) For the identification of DDD853651/GSK3186899, which contained a trans-1,4-cyclohexyldiamine, a key strategy was to optimise the balance between potency in the intracellular Leishmania assay (L. donovani in THP-1 cells, referred to as Ld InMac assay[9]) and solubility.[10] In that case, we focused on 2 (Table 1), where the sulfonamide was required for potency but was poorly soluble. […] To this end, we examined a 4-aminopiperidine central unit with both sulfonamide and amide substituents (Table 1). […] We therefore selected 4 as a suitable start-point for further chemistry. […] We noted that either lengthening the linker to the aromatic ring, or removing it, led to a loss of activity (6 and 7 respectively).
(§2) Intramacrophage Leishmania donovani Assay

L. donovani amastigotes = experiment: Ld InMac intramacrophage Leishmania donovani assay; type: cell-based; details: Leishmania donovani; L. donovani amastigotes in THP-1 cells; mean of n ≥ 3; read-out: Ld InMac pEC50 (converted)
Source text: as §1, §2

FaSSIF solubility = type: physicochemical; details: fasted state simulated intestinal fluid (FaSSIF)
[2] = Stability in mouse liver microsomes (intrinsic clearance); type: in vitro ADME; details: mouse liver microsomal intrinsic clearance, 0.5 μM
Experimental: Stability in Microsomes 10
Test compound (0.5 μM) was incubated with female CD1 mouse (Xenotech) liver microsomes and their action started with addition of excess NADPH (8 mg/mL 50 mM potassium phosphate buffer, pH 7.4). Immediately, at time zero, then at 3, 6, 9, 15, and 30 min, an aliquot (50 μL) of the incubation mixture was removed and mixed with acetonitrile (100 μL) to stop the reaction.
Internal standard was added to all samples, the samples centrifuged to sediment precipitated protein, and the plates then sealed prior to UPLC-MS/MS analysis using a Xevo TQs micro (Waters Corporation, USA). XLfit (IDBS, UK) was used to calculate the exponential decay and consequently the rate constant (k) from the ratio of the peak area of test compound to internal standard at each time point. The rate of intrinsic clearance (Cl i) of each test compound was then calculated using the equation Cl i (mL/min/g liver) = k × V × microsomal protein yield, where V (mL/mg protein) is the incubation volume/mg protein added and […]
microsomal protein yield is taken as 52.5 mg protein/g liver. Verapamil (0.5 μM) was used as a positive control to confirm acceptable assay performance. […]

[3] = Aqueous solubility, values marked with ref 12; type: physicochemical; details: values marked [12] in the table (method of ref 12, not CAD)
L. donovani = experiment: Mouse efficacy model of VL; type: in vivo; details: for % Suppression of parasite load: liver load
Experimental: page 37: microsomal protein yield is taken as 52.5 mg protein/g liver. Verapamil (0.5 μM) was used as a positive control to confirm acceptable assay performance. In Vivo Efficacy Studies 10 Groups of female BALB/c mice (5 per group) were inoculated intravenously with approximately […] L. donovani amastigotes (LV9; WHO designation: MHOM/ET/67/HU3) harvested from the spleen of an infected hamster. From day 7 post infection, groups of mice were treated with either drug vehicle only (orally), with control drugs Miltefosine 30 mg/kg orally and Pentostam 15 mg/kg subcutaneously (only in compound 48 efficacy experiment) or with test compound at the appropriate dose. Miltefosine and Pentostam were dosed once daily for 5 days and test compounds were dosed twice daily for 5 days. Drug dosing solutions were prepared fresh each day and the vehicle was deionized water for Miltefosine and Pentostam, or 0.5% HPMC, 0.4% Tween 80, and 0.5% benzyl alcohol for test compounds. On day 14 all animals were humanely euthanized, liver smears made, and parasite burdens determined by counting the number of amastigotes/500 liver cells. Parasite burden is expressed in Leishman−Donovan units (LDU): the number of amastigotes per 500 nucleated cells multiplied by the organ weight in milligrams. S-37

[4] = Oral pharmacokinetics in Balb-c mice; type: in vivo; details: mouse, blood, female Balb-c mice, 100 mg kg^–1
Source text: On this basis, 48 and 50 were progressed into orally dosed pharmacokinetic studies in female Balb-c mice (Table 6), with both having sufficient Cmax (the highest concentration of a drug in the blood) and AUC (area under the curve) to progress into the previously reported mouse efficacy model of VL.[10]

p38α MAPK = p38α MAPK (Homo sapiens, UniProt Q16539); experiment: Human kinase panel, p38α MAPK; type: biochemical; details: panel of 140 human kinases
Chain of p38α MAPK (Q16539 whole entry): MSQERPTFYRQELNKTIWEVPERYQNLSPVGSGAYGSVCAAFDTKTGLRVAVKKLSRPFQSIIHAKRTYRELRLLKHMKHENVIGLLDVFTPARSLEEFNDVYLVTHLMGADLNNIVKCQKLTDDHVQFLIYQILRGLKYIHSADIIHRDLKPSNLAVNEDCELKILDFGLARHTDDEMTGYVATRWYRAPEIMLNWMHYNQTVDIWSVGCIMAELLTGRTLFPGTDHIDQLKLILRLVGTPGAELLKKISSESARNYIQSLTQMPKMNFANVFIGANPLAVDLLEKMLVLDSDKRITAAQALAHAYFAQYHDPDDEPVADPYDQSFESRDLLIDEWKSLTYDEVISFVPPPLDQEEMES
Source text: (§3) From this, only 4 kinases were inhibited at >40% (ERK8 [extracellular signal-regulated kinases], p38α and p38β MAPK [mitogen-activated protein kinases] and CDK2 [cyclin dependant kinase]).

p38β MAPK = p38β MAPK (Homo sapiens, UniProt Q15759); experiment: Human kinase panel and IC50, p38β MAPK; type: biochemical
Chain of p38β MAPK (Q15759 whole entry): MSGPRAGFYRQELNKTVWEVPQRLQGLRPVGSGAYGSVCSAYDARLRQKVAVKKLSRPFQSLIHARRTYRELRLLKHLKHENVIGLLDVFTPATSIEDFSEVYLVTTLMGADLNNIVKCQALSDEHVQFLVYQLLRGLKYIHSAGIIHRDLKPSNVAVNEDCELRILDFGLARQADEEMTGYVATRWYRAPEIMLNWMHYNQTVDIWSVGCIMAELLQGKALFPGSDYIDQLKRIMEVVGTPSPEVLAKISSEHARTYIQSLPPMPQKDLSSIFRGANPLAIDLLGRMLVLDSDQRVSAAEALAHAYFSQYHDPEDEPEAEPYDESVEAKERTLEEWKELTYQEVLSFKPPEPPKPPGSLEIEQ
Source text: as §3

CDK2 = CDK2 (Homo sapiens, UniProt P24941); experiment: Human kinase panel, CDK2; type: biochemical; details: panel of 140 human kinases
Source text: as §3

ERK8 = target: T1, ERK8 (Homo sapiens, UniProt Q8TD08); experiment: Human kinase panel and IC50, ERK8; type: biochemical
T1 sequence (Q8TD08 1-544): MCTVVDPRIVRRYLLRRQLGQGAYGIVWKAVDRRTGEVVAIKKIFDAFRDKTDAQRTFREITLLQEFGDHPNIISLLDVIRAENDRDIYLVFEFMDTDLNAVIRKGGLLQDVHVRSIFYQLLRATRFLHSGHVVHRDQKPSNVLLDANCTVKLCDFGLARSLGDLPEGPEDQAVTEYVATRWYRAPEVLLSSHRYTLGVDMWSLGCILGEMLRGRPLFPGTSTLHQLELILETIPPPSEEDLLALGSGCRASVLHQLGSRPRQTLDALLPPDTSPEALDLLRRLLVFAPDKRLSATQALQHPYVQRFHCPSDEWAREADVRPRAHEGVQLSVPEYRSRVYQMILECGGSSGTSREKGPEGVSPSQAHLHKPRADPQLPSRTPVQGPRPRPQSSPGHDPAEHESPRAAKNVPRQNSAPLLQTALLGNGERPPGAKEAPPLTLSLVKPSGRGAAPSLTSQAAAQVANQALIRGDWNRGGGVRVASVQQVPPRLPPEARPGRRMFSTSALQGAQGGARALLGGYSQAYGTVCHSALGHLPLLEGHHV
Source text: as §3

[5] = Rat dose-escalation PK study; type: in vivo
[6] = 10 μM, panel of 140 human kinases
[7] = dose increased from 100 to 300 mg kg^–1

`COc1ccccc1-c1n[nH]c2nc(NC3CCN(C(=O)Cc4ccc(F)cc4F)CC3)ncc12` [Compound 20] gave a solubility at 1 h [1] of less than 1 µM, an EC50 (THP-1 cells) of 39.8 µM and an EC50 (L. donovani amastigotes) of 0.0794 µM. The solubility (FaSSIF solubility) was less than 1 µg/mL and the Cli mouse [2] was 5.0 ml min^–1 g^–1.
Compound `COc1ccccc1-c1n[nH]c2nc(NC3CCN(c4ccc(Cl)nn4)CC3)ncc12` [Compound 41] has an EC50 (THP-1 cells) greater than 50.1 µM, a solubility [3] of 4 µM (≈ 1.75 µg/mL) and an EC50 (L. donovani amastigotes) of 0.158 µM. For the same compound, the Cli mouse [2] was 3.4 ml min^–1 g^–1.
`COc1ccccc1-c1n[nH]c2nc(NC3CCN(C(=O)CC4CC4)CC3)ncc12` [Compound 42] showed a solubility at 1 h [1] of 22 µM (≈ 8.94 µg/mL), an EC50 (THP-1 cells) of 39.8 µM and an EC50 (L. donovani amastigotes) of 0.316 µM. For the same compound, the solubility (FaSSIF solubility) was less than 1 µg/mL and the Cli mouse [2] was 1.6 ml min^–1 g^–1.
Compound `O=C(CC1CC1)N1CCC(Nc2ncc3c(C4CCOCC4)n[nH]c3n2)CC1` [Compound 44] has a solubility at 1 h [1] of no less than 496 µM, an EC50 (THP-1 cells) greater than 50.1 µM and an EC50 (L. donovani amastigotes) of 7.94 µM. It also gave a Cli mouse [2] of 0.8 ml min^–1 g^–1.
In the case of `O=C(Cc1ccc(F)c(F)c1)N1CCC(Nc2ncc3c(C4CCOCC4)n[nH]c3n2)CC1` [Compound 47], the solubility at 1 h [1] is reported as no less than 429 µM, the EC50 (THP-1 cells) is reported as greater than 50.1 µM and the EC50 (L. donovani amastigotes) is reported as 1 µM. It also gave a Cli mouse [2] of 3.1 ml min^–1 g^–1.
In the case of `O=C(Cc1ccc(F)c(F)c1)N1CCC(Nc2ncc3c(N4CCOCC4)n[nH]c3n2)CC1` [Compound 48], the “% Suppression of parasite load” value (L. donovani; 30 mg kg^–1 b.i.d. for 5 days PO) is reported as 60%, the “% Suppression of parasite load” value (L. donovani; 100 mg kg^–1 b.i.d. for 5 days PO) is reported as 98% and the minimum efficacious dose (L. donovani; mouse model of VL) is reported as 100 mg kg^–1. The solubility at 1 h [1] was no less than 465 µM, the AUC [4] was 20900 ng·h/mL and the Cmax [4] was 5760 ng/mL. For the same compound, the Tmax [4] was 1 h, the EC50 (THP-1 cells) was greater than 50.1 µM and the inhibition at 10 µM (p38α MAPK) was greater than 40%. It also gave an EC50 (L. donovani amastigotes) of 0.794 µM, an inhibition at 10 µM (p38β MAPK; [6]) greater than 40% and an IC50 (p38β MAPK; full IC50 curve) of 0.55 µM. The inhibition at 10 µM (CDK2) was greater than 40%, the inhibition at 10 µM (ERK8; [6]) was greater than 40% and the IC50 (ERK8; full IC50 curve) was 0.11 µM. The Cmax ([5]; blood, 10 mg kg^–1) was 229 ng/mL, the Tmax ([5]; blood, 10 mg kg^–1) was 0.67 h and the AUC(0-t) ([5]; blood, 10 mg kg^–1, read-out: AUC (0-Tlast)) was 488 ng·h/mL. The Cmax ([5]; blood, 100 mg kg^–1) was 5520 ng/mL, the Tmax ([5]; blood, 100 mg kg^–1) was 6 h and the AUC(0-t) ([5]; blood, 100 mg kg^–1, read-out: AUC (0-Tlast)) was 50600 ng·h/mL. For the same compound, the Cmax ([5]; blood, 300 mg kg^–1) was 6760 ng/mL, the Tmax ([5]; blood, 300 mg kg^–1) was 6.67 h and the “increase in AUC(0-Tlast)” value [5, 7] was 1.7 fold. For the same compound, the “increase in Cmax” value [5, 7] was 1.2 fold, the AUC(0-t) ([5]; in vivo, 300 mg kg^–1, read-out: AUC (0-Tlast)) was 84600 ng·h/mL and the solubility (FaSSIF solubility) was 97 µg/mL (≈ 212 µM). For the same compound, the Cli mouse [2] was 1.6 ml min^–1 g^–1.
`Clc1ccc(N2CCC(Nc3ncc4c(C5CCOCC5)n[nH]c4n3)CC2)nn1` [Compound 49] gave an EC50 (THP-1 cells) greater than 50.1 µM, a solubility ([3]; aqueous solution) of 63 µM (≈ 26.1 µg/mL) and an EC50 (L. donovani amastigotes) of 1.58 µM.
With `Clc1ccc(N2CCC(Nc3ncc4c(N5CCOCC5)n[nH]c4n3)CC2)nn1` [Compound 50] the “% Suppression of parasite load” value (L. donovani; 25 mg kg^–1 b.i.d. for 5 days PO) was 17%, the “% Suppression of parasite load” value (L. donovani; 50 mg kg^–1 b.i.d. for 5 days PO) was 57% and the AUC [4] was 39800 ng·h/mL. For the same compound, the Cmax [4] was 5230 ng/mL, the Tmax [4] was 4 h and the EC50 (THP-1 cells) was greater than 50.1 µM. The solubility ([3]; aqueous solution) was 121 µM (≈ 50.3 µg/mL), the EC50 (L. donovani amastigotes) was 0.631 µM and the solubility (FaSSIF solubility) was 88 µg/mL (≈ 212 µM). For the same compound, the Cli mouse [2] was 0.6 ml min^–1 g^–1.
